Laboratory results as given in US7592140B2, “2′, 5′-oligoadenylate phosphodiesterase” (priority 2002, dated 2009).

Key:
PC-3 cells = assay: Cell viability of PC-3 cells (Alamar Blue); type: cell-based, human; settings: host PC-3 cells, cultured for 3 days
[1] = tested on: 2′-PDE stable expression strains #6 and #10; assay: Cell viability of 2′-PDE stable expression strains of PC-3 (Alamar Blue); type: cell-based, human; settings: cultured for 3 days
Vaccinia virus WR strain = type: cell-based
recombinant human 2′-PDE [2] = target: T1, recombinant human 2′-PDE (Homo sapiens, UniProt Q6L8Q7); assay: Inhibition of recombinant human 2′-PDE activity (HPLC measurement of substrate reduction); type: biochemical; design: His6 (histidine hexamer) (C); made in house; nickel-chelate partial purification; settings: substrate 0.75 mM adenylyl(2′-5′)adenosine, 37° C. for 60 min; read-out: 50% inhibition concentration (converted)
T1 sequence (Q6L8Q7 43-609): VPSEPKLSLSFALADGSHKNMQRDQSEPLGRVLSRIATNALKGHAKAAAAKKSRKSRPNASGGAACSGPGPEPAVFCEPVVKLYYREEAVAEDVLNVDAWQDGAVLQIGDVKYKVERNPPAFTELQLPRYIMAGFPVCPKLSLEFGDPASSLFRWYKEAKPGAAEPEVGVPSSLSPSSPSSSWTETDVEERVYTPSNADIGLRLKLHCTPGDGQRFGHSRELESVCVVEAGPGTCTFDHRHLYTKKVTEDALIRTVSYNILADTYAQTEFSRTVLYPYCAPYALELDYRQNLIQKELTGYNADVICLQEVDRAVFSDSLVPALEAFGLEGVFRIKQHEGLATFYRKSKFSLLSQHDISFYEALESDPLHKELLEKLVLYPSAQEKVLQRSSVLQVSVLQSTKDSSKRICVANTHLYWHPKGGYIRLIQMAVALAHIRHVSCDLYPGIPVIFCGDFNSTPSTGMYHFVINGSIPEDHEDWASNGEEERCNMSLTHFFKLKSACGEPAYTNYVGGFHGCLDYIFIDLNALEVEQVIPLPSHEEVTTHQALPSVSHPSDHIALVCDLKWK
Protocol: To 10 μl of the partially purified human 2′-PDE enzyme solution obtained in part 1) of Production Example 1, were added 80 μl of Buffer 7 containing 0.75 mM adenylyl(2′-5′)adenosine as the substrate and 10 μl of a solution of the A-74528 compound dissolved in dimethyl sulphoxide. Then the mixture was incubated at 37° C. for 60 min. and the enzyme was inactivated by addition of 200 μl of methanol. Ten μl of the sample obtained, after insoluble matter was removed using a 0.45 μm filter, was subjected to a reversed phase column (Inertsil ODS-2, 5 μm: diameter 4.6 mm×150 mm: manufactured by GL Science), equilibrated beforehand with Buffer 17 [50 mM ammonium acetate (pH 5.0), 5% (V/V) acetonitrile]. Liquid chromatography was performed at a flow rate of 1 ml/min. at 40° C., and the eluate was monitored at a wavelength of 260 nm. The elution was conducted as an isocratic elution. Using a standard material for the substrate, a conversion formula for obtaining the substrate amount based on the peak area was prepared. Based on the conversion formula, the reduction in the amount of the substrate was calculated from the substrate peak area when the diluted enzyme solution was added, which was regarded as the amount of the enzyme reaction product.

[3] = Solubility (physicochemical properties)
[4] = tested on: 2′-PDE purified by Johnston et al.; settings: value obtained by Johnston et al.; activity with A2′pA defined as 1; cited from earlier work
recombinant human 2′-PDE [5] = target: T1, recombinant human 2′-PDE; assay: Substrate specificity of recombinant human 2′-PDE (HPLC); type: biochemical; design: His6 (histidine hexamer) (C); made in house; host or cells: COS-1 cells (monkey kidney), transient transfection with pEF6/KUBO#002/11-1; nickel-chelate partial purification; settings: relative to adenylyl(2′-5′)adenosine defined as one; 150 μM substrate, 37° C. for 60 min

## interferon-α
PC-3 cells
  suppression of cell viability: suppressed the viability of PC-3 cells in a concentration-dependent manner
[1]
  cell proliferation suppression activity compared with host PC-3 cells: attenuated

## CC1c2c(O)cc(O)c3c2C2C(CC(O)=C4C(=O)c5c(O)cc(O)cc5C(C3=O)C42Cc2cc(O)cc(=O)o2)C1O (stereo not shown) [A-74528]
Vaccinia virus WR strain
  effect on viral replication-suppression activity of interferon-α: enhanced the viral replication-suppression activity of interferon-α
  viral replication-suppression activity: exhibited a viral replication-suppression activity in a concentration-dependent manner
Recombinant human 2′-PDE [2]
  IC50: 60.7 µM
[3]
  solubility: soluble in methanol and dimethyl sulphoxide

## Nc1ncnc2c1ncn2[C@@H]1O[C@H](COP(=O)(O)O[C@H]2[C@@H](O)[C@H](n3cnc4c(N)ncnc43)O[C@@H]2COP(=O)(O)O[C@H]2[C@@H](O)[C@H](n3cnc4c(N)ncnc43)O[C@@H]2CO)[C@@H](O)[C@H]1O [adenylyl(3′-5′)adenylyl(3′-5′)adenosine]
[4]
  relative cleavage efficiency: 163
Recombinant human 2′-PDE [5]
  relative cleavage efficiency: 1.1

B1: interferon-γ (protein, UniProt P01579 24-161, looked up)
Interferon gamma: QDPYVKEAENLKKYFNAGHSDVADNGTLFLGILKNWKEESDRKIMQSQIVSFYFKLFKNFKDDQSIQKSVETIKEDMNVKFFNSNKKKRDDFEKLTNYSVTDLNVQRKAIHELIQVMAELSPAAKTGKRKRSQMLFRG
PC-3 cells
  suppression of cell viability: suppressed the viability of PC-3 cells in a concentration-dependent manner
[1]
  cell proliferation suppression activity compared with host PC-3 cells: attenuated
